Reference: ChEMBL document CHEMBL4373699, “Structure-Guided Discovery of a Selective Mcl-1 Inhibitor with Cellular Activity” (J Med Chem, 2019)

Columns and labels:
[1] = target: T1, Apoptosis regulator Bcl-2 (Homo sapiens, UniProt P10415); assay: biochemical
[2] = target: T2, Bcl-2-like protein 1 (Homo sapiens, UniProt Q07817); assay: Inhibition of Bcl-XL (unknown origin) by fluorescence polarization assay
[3] = target: T3, Induced myeloid leukemia cell differentiation protein Mcl-1 (Homo sapiens, UniProt Q07820); assay: biochemical
[4] = target: T3, Induced myeloid leukemia cell differentiation protein Mcl-1; assay: biochemical; remark: listed apart in the source
Description: Binding affinity to TEV-fused His-tagged human Mcl-1 expressed in Escherichia coliBL21(DE3) pLysS cells by Isothermal Titration Calorimetry

[5] = target: T2, Bcl-2-like protein 1; assay: Inhibition of Bcl-XL (unknown origin) at 0.5 mM by fluorescence polarization assay relative to control
[6] = target: Cytochrome P450 2D6 (Homo sapiens, UniProt P10635)
Description: Inhibition of human CYP2D6

[7] = in vivo; details: mouse, iv, 1 mg/kg
Description: Volume of distribution in mouse at 1 mpk, iv

[8] = in vivo; details: mouse, po, 3 mg/kg
Description: AUCt in mouse at 3 mpk, po

[9] = target: Cytochrome P450 3A4 (Homo sapiens, UniProt P08684); assay: Inhibition of human CYP3A4; type: ADME
[10] = target: T4, Cytochrome P450 1A2 (Homo sapiens, UniProt P05177)
T4 sequence (P05177 whole entry): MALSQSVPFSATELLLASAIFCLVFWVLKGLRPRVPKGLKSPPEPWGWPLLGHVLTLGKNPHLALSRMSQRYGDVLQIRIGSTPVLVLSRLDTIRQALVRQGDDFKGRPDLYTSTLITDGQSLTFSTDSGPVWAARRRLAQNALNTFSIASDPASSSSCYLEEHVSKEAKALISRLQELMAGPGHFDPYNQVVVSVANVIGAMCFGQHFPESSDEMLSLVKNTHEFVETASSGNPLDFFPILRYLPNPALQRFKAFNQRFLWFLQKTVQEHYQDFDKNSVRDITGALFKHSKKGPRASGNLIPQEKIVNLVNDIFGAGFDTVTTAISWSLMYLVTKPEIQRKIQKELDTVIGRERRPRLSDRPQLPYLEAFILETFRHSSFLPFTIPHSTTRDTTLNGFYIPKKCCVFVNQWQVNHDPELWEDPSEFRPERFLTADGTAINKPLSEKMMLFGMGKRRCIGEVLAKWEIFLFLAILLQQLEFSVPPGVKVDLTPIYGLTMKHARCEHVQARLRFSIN
Description: Inhibition of human CYP1A2

[11] = in vivo; details: mouse, iv, 1 mg/kg; remark: listed apart in the source
Description: AUCt in mouse at 1 mpk, iv

[12] = in vivo; details: mouse, po, 3 mg/kg; remark: listed apart in the source
Description: Oral bioavailability in mouse at 3 mpk

[13] = in vivo; details: mouse, plasma, iv, 1 mg/kg
Description: Plasma clearance in mouse at 1 mpk, iv

[14] = in vivo; details: mouse, iv, 1 mg/kg; remark: listed apart in the source
Description: Half-life in mouse at 1 mpk, iv

[15] = target: Cytochrome P450 2C9 (Homo sapiens, UniProt P11712)
Description: Inhibition of human CYP2C9

[16] = mouse, plasma
Description: Fraction unbound in mouse plasma

[17] = in vivo; details: mouse, po, 3 mg/kg; remark: listed apart in the source
Description: Cmax in mouse at 3 mpk, po

[18] = in vivo; details: mouse, po, 3 mg/kg; remark: listed apart in the source
Description: Half-life in mouse at 3 mpk, po

[19] = human, plasma
Description: Fraction unbound in human plasma

[20] = target: T1, Apoptosis regulator Bcl-2; assay: Displacement of N-terminal fluorescein labelled Puma-BH3 peptide from human N-terminal thrombin cleavage site-fused/His6-tagged Bcl-2 expressed in Escherichia coliBL21(DE3) pLysS cells at 10 uM by fluorescence polarization assay relative to control
[21] = target: T2, Bcl-2-like protein 1; assay: Inhibition of Bcl-XL (unknown origin) at 10 uM by fluorescence polarization assay relative to control

T1 sequence (P10415 whole entry): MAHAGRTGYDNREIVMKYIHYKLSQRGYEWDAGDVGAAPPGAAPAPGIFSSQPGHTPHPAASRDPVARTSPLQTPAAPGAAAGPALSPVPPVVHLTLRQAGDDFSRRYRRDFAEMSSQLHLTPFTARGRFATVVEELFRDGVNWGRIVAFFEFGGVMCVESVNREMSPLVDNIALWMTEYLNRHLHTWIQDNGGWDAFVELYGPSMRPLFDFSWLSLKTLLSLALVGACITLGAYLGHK
T2 sequence (Q07817 whole entry): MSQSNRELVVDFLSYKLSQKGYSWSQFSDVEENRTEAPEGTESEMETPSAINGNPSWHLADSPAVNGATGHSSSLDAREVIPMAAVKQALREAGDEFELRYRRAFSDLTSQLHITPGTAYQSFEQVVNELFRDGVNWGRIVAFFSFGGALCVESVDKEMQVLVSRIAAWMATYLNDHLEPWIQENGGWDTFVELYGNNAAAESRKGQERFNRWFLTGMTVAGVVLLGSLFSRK
T3 sequence (Q07820 whole entry): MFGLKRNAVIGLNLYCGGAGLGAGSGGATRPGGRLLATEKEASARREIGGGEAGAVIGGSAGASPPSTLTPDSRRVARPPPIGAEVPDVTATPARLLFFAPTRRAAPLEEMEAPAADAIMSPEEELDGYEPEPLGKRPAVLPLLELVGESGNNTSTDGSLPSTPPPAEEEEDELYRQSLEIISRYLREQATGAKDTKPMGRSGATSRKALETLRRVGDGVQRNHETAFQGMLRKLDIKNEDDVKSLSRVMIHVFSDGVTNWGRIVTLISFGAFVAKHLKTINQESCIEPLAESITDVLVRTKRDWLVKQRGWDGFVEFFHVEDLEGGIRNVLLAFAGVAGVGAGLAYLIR
Chain of Cytochrome P450 2C9 (P11712 whole entry): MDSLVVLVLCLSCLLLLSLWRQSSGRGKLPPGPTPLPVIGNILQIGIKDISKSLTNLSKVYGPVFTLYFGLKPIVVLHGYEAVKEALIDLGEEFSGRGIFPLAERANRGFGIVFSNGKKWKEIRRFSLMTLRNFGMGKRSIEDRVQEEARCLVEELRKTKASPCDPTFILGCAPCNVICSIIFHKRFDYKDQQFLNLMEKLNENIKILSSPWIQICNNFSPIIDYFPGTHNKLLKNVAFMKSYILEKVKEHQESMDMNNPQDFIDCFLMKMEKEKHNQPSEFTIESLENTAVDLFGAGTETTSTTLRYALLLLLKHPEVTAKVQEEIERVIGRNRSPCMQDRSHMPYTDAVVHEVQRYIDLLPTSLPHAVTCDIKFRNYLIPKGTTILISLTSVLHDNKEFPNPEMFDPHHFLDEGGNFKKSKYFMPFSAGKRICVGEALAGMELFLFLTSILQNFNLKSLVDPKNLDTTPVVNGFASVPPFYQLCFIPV
Chain of Cytochrome P450 3A4 (P08684 whole entry): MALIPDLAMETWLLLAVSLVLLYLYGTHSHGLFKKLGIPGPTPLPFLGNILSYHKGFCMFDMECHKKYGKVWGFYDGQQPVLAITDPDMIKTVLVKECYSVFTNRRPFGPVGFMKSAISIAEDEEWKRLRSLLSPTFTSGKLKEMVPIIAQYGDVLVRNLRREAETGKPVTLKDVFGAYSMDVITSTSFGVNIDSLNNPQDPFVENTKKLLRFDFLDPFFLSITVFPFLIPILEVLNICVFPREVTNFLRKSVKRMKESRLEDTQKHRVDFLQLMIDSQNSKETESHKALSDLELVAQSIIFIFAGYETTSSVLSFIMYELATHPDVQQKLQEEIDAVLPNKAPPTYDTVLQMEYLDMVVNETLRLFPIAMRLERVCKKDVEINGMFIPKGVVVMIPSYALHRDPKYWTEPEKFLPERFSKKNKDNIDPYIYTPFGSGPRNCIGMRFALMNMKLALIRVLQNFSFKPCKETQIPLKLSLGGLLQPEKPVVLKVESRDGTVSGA
Chain of Cytochrome P450 2D6 (P10635 whole entry): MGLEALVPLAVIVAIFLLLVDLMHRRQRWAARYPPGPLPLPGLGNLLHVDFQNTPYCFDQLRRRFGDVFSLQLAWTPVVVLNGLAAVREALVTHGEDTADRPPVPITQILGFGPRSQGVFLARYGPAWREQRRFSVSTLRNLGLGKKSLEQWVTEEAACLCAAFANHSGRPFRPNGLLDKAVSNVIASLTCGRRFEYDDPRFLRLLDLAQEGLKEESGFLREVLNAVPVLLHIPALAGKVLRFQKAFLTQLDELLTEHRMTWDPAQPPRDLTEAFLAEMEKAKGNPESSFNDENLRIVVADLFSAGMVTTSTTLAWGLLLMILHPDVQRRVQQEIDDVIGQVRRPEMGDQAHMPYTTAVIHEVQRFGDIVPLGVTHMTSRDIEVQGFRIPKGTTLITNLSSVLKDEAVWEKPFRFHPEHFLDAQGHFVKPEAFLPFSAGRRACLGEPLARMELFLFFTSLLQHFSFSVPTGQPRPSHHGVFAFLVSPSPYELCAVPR

Row | Compound | Ki [1] [µM] | Ki [2] [µM] | Ki [3] [µM] | also measured
1 | CCc1sc2ncnc(N[C@H](C(=O)O)c3ccccc3)c2c1-c1cccc(O)c1 | 269 | 107 | 27 | 
2 | CCc1sc2ncnc(N[C@H](CC3CCCCC3)C(=O)O)c2c1-c1cccc(Oc2ccc(F)cc2)c1 | 8.1 | 17 | 53 | 
3 | CCc1sc2ncnc(N[C@@H](C)C(=O)O)c2c1-c1ccccc1 | 418 |  | 110 | 
4 | CCc1sc2ncnc(NC(C(=O)O)c3ccccc3)c2c1-c1cccc(Oc2ccc(F)cc2)c1 (racemic) | 13 | 15 | 68 | 
5 | CCc1sc2ncnc(N[C@@H](Cc3ccccc3)C(=O)O)c2c1-c1cccc(O)c1 |  |  | 58 | 
6 | CCc1sc2ncnc(N[C@H](C)C(=O)O)c2c1-c1cccc(O)c1 | 5 |  | 45 | 
7 | CCc1sc2ncnc(N[C@H](C)C(=O)O)c2c1-c1ccc2ccccc2c1 |  |  | 110 | 
8 | CCc1sc2ncnc(O[C@H](Cc3ccccc3)C(=O)O)c2c1-c1ccc(OCC(=O)N2CCN(C)CC2)c(Cl)c1C |  |  | 0.021 | 
9 | CCNS(=O)(=O)c1cccc(-c2nc(N[C@H](C)C(=O)O)c3c(-c4cccc(Oc5ccc(F)cc5)c4)c(CC)sc3n2)c1 | 1.3 | 39 | 50 | 
10 | C[C@@H](Nc1ncnc2sc(-c3ccccc3)c(-c3cccc(O)c3)c12)C(=O)O | 49 | 42 | 27 | 
11 | CCc1sc2ncnc(N[C@@H](C)C(=O)O)c2c1-c1ccc(SC)cc1 | 359 | 216 | 44 | 
12 | CCc1sc2ncnc(N[C@H](Cc3ccccc3)C(=O)O)c2c1-c1ccc(OCCN2CCN(C)CC2)c(Cl)c1C (stereo in doubt; 17b) |  |  | 170 | 
13 | CCc1sc2ncnc(NC(CO)C(=O)O)c2c1-c1cccc(Oc2ccc(F)cc2)c1 (racemic) |  | 87 | 61 | 
14 | CCc1sc2ncnc(N[C@@H](C)C(=O)O)c2c1CC | 74 |  | 50 | IC50 [1]: 164 µM
15 | CCc1sc2ncnc(N[C@H](Cc3ccccc3)C(=O)O)c2c1-c1cccc(Oc2ccc(F)cc2)c1 | 24 | 24 | 51 | 
16 | CCc1sc2nc(S(C)(=O)=O)nc(N[C@H](C)C(=O)O)c2c1-c1cccc(Oc2ccc(F)cc2)c1 | 51 | 26 | 44 | 
17 | CCc1sc2ncnc(N[C@H](C)C(=O)O)c2c1-c1ccccc1C |  |  | 100 | 
18 | CCc1sc2ncnc(N[C@@H](C)C(=O)O)c2c1-c1cccc(Oc2ccc(F)cc2)c1 | 98 | 33 | 130 | 
19 | CCc1sc2ncnc(O[C@H](Cc3ccccc3)C(=O)O)c2c1-c1ccccc1C (stereo in doubt; 9d) [listing 2 of 2 here] |  |  |  | inhibition [20]: 5%; inhibition [21]: 2%
20 | CCc1sc2ncnc(N[C@@H](Cc3ccccc3)C(=O)O)c2c1-c1cccc(Oc2ccc(F)cc2)c1 | 24 | 18 | 77 | 
21 | C[C@@H](Nc1ncnc2scc(-c3cccc(O)c3)c12)C(=O)O |  | 287 | 59 | 
22 | CCc1sc2ncnc(O[C@H](Cc3ccccc3)C(=O)O)c2c1-c1cccc2[nH]ccc12 (stereo in doubt; 9b) [listing 2 of 2 here] |  |  |  | inhibition [20]: 11%

The remaining compounds from weak to strong by Ki [3], led by results:

Row | Ki [1] [µM] | Ki [2] [µM] | Ki [3] [µM] | Compound | also measured
23 | 21 |  | 24 | O=C(O)[C@@H](Cc1ccccc1)Nc1ncnc2sc(-c3ccccc3)c(-c3cccc(O)c3)c12 | 
24 |  |  | 24 | CCc1sc2ncnc(N[C@H](C)C(=O)O)c2c1-c1ccccc1OCc1ccccc1 | 
25 | 437 |  | 21 | CCc1sc2ncnc(N[C@@H](C)C(=O)O)c2c1-c1cccc(C(F)(F)F)c1 | 
26 | 5.4 |  | 19 | C=C(C)c1sc2ncnc(N[C@H](Cc3ccccc3)C(=O)O)c2c1-c1cccc(Cl)c1C | inhibition [5]: 35%
27 | 6.1 |  | 19 | CCc1sc2ncnc(N[C@H](C)C(=O)O)c2c1-c1cccc(Oc2ccc(F)cc2)c1 | 
28 |  |  | 18 | CCc1sc2ncnc(O[C@H](C)C(=O)O)c2c1-c1ccccc1C (stereo in doubt; 7d) | 
29 |  |  | 15 | CCc1sc2ncnc(O[C@H](C)C(=O)O)c2c1-c1ccccc1C (stereo in doubt; 7e) | 
30 |  |  | 10 | CCc1sc2ncnc(N[C@H](Cc3ccccc3)C(=O)O)c2c1-c1cccc(O)c1 | 
31 | 4.1 | 18 | 8.4 | CCc1sc2nc(-c3cccnc3)nc(N[C@H](C)C(=O)O)c2c1-c1cccc(Oc2ccc(F)cc2)c1 | 
32 |  |  | 8.1 | CCc1sc2ncnc(O[C@H](C)C(=O)O)c2c1-c1ccc(C(C)C)cc1 | 
33 | 470 | 319 | 7.7 | CCc1sc2ncnc(N[C@@H](C(=O)O)c3ccccc3)c2c1-c1cccc(O)c1 | 
34 |  |  | 6 | CCc1sc2ncnc(O[C@H](C)C(=O)O)c2c1-c1ccc2ccccc2c1 | 
35 |  |  | 5.7 | CCc1sc2ncnc(N[C@H](Cc3ccccc3)C(=O)O)c2c1-c1cccc2[nH]ccc12 (stereo in doubt; 8b) | 
36 |  |  | 5.3 | CCc1sc2ncnc(O[C@H](Cc3ccccc3)C(=O)O)c2c1-c1cccc(Br)c1C (stereo in doubt; 10a) | 
37 |  |  | 3.4 | CCc1sc2ncnc(O[C@H](Cc3ccccc3)C(=O)O)c2c1-c1ccccc1C (stereo in doubt; 9c) | 
38 |  |  | 2 | CCc1sc2ncnc(N[C@H](Cc3ccccc3OCCN3CCN(C)CC3)C(=O)O)c2c1-c1cccc(Cl)c1C | Kd [4]: 360 nM
39 |  | 135 | 1.6 | CCc1sc2ncnc(N[C@H](Cc3ccccc3)C(=O)O)c2c1-c1cccc2[nH]ccc12 (stereo in doubt; 8a) | 
40 |  |  | 0.89 | CCc1sc2ncnc(O[C@H](Cc3ccccc3)C(=O)O)c2c1-c1ccccc1C (stereo in doubt; 9d) [listing 1 of 2 here] | 
41 | 36 |  | 0.81 | CCc1sc2ncnc(O[C@H](Cc3ccccc3)C(=O)O)c2c1-c1cccc(Cl)c1C | 
42 |  |  | 0.64 | CCc1sc2ncnc(O[C@H](Cc3ccccc3)C(=O)O)c2c1-c1cccc2[nH]ccc12 (stereo in doubt; 9b) [listing 1 of 2 here] | 
43 |  |  | 0.49 | CCc1sc2ncnc(O[C@H](Cc3ccccc3)C(=O)O)c2c1-c1cccc2[nH]ccc12 (stereo in doubt; 9a) | 
44 |  |  | 0.33 | CCc1sc2ncnc(O[C@H](Cc3ccccc3)C(=O)O)c2c1-c1cccc(Br)c1C (stereo in doubt; 10b) | 
45 |  |  | 0.26 | CCc1sc2ncnc(N[C@H](Cc3ccccc3OC)C(=O)O)c2c1-c1cccc(Cl)c1C | Kd [4]: 24 nM
46 |  |  | 0.22 | CCc1sc2ncnc(N[C@H](Cc3ccccc3)C(=O)O)c2c1-c1ccc(OCCN2CCN(C)CC2)c(Cl)c1C (stereo in doubt; 17a) | IC50 [6]: ≥ 20 µM; Vd [7]: 0.9 L/kg; AUC(0-t) [8]: 168 ng·h/mL; IC50 [9]: 5.2 µM; IC50 [10]: ≥ 20 µM; AUC(0-t) [11]: 509 ng·h/mL; bioavailability [12]: 16%; clearance [13]: 33 mL/min/kg; half-life [14]: 39 min; IC50 [15]: ≥ 20 µM; Fu [16]: 0.2%; Cmax [17]: 64 ng/mL; half-life [18]: 228 min; Fu [19]: 0.2%
47 |  |  | 0.076 | CCc1sc2ncnc(O[C@H](Cc3ccccc3)C(=O)O)c2c1-c1cc2cc(CN(C)C)oc2c(Cl)c1C | 
48 |  |  | 0.032 | CCc1sc2ncnc(O[C@H](Cc3ccccc3)C(=O)O)c2c1-c1cc(CN2CCN(C)CC2)c(O)c(Cl)c1C | 
